The values below come from US20220185832A1, “CD73 INHIBITORS” (BioArdis LLC, priority 2019, published 2022).

Broadly, the IC50 is the concentration that inhibits the measured activity by half.

This test addresses T1, Recombinant Human 5′-Nucleotidase (CD73) (Homo sapiens, UniProt P21589).
T1 construct: CHO derived CD73 (Trp27-Lys547), with a C-terminal 6-His tag; 6-His (C); purchased R&D 5795-EN; host or cells: CHO
T1 sequence (P21589 27-547): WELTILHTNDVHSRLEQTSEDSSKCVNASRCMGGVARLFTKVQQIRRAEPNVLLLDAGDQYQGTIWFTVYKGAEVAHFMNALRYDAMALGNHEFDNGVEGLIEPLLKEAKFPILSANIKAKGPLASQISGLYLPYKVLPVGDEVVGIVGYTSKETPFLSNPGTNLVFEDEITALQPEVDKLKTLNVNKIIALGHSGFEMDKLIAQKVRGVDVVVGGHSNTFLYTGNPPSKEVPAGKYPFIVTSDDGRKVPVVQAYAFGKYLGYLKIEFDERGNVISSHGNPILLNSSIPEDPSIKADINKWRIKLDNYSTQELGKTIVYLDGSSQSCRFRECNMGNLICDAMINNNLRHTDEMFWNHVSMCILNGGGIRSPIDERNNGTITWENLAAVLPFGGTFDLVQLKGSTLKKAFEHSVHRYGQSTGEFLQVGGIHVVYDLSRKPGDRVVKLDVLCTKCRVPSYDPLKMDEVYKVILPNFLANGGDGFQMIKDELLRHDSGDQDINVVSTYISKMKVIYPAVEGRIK
Put plainly: CD73 Enzyme Assay. Type of test: biochemical. The following applies: 0.5 nM human CD73, 30 μM AMP, PiColorLock phosphate detection, OD 635 nm; read-out: Potency (IC50). The text has this:
Soluble recombinant CD73 catalyzes the conversion of adenosine monophosphate (AMP) to adenosine and inorganic phosphate. The phosphate detection reagent, PiColorLock™ (Innova Bioscience, Cat #303-0125) is based on the change in absorbance of the dye malachite green in the presence of inorganic phosphate (Pi) and this property can be exploited to measure any enzyme that generates Pi. Recombinant Human 5′-Nucleotidase (CD73) (R&D #5795-EN, CHO derived CD73 (Trp27-Lys547), with a C-terminal 6-His tag) was used in the enzymatic assay. This assay was run in a 384-well plate format (Corning® NBS™ 384 well plates, Cat #3640). The basic assay procedure involves two steps: 1) Enzyme reaction: The CD73 enzyme (R&D #5795-EN) is incubated in the presence or absence of compounds. AMP (sigma, cat #01930) is added to start the kinase reaction. 2) Detection step: “Gold mix” is added to the assay system, then stabilizers are added. After incubation the absorbance of the solution is read at OD 635 nm. The recorded OD signal is proportional to the enzyme activity.
Briefly, 25 μl human CD73 (0.5 nM final concentration) in the enzymatic buffer solutions (20 mM Tris, 25 mM NaCl, 1 mM MgCl2, pH 7.5, 0.005% Tween-20) were mixed with various concentrations of the test compound (dissolved in 100% DMSO). These solutions were incubated for 15 min at 25° C., and subsequently 25 μl AMP (30 μM final concentration) was added to start the reaction. The final reaction mixture of enzyme-substrate-compound was incubated for 20 min at 37° C. Meanwhile, “Gold mix” was prepared shortly before use by adding 1/100 vol. of accelerator to the PiColorLock™ Gold reagent. 12 μL/well of the “Gold mix” was added to assay plate containing 50 μL enzyme reaction buffer and incubated at 25° C. for 5 min. 5 μL/well stabilizer was added to the assay plate and incubated at 25° C. for 30 min. The absorbance of the well solutions was measured at 635 nm on a Spark 10M instrument (TECAN).
The percent (%) inhibition at each concentration of a compound was calculated relative to the OD value in the Max and Min control wells contained within each assay plate. The Max control wells contained enzyme and substrate as 0% inhibition, and the Min control wells only contained substrate without enzyme as 100% inhibition. The concentrations and percent inhibition values for a test compound are plotted and the concentration of the compound required to achieve 50% inhibition (IC50) was determined with a four-parameter logistic dose response equation.

Each structure is given as a SMILES string.

As for `N#C[C@@]1(c2ccc3c(NCc4ccccc4)nc(Cl)nc3c2)O[C@H](COP(=O)(O)CP(=O)(O)O)[C@@H](O)[C@H]1O` [Compound 16, (((((2R,3S,4R,5R)-5-(4-(benzylamino)-2-chloroquinazolin-7-yl)-5-cyano-3,4-dihydroxytetrahydrofuran-2-yl)methoxy)(hydroxy)phosphoryl)methyl)phosphonic acid], the IC50 was over 1000 nM. Regarding `CN(c1nc(Cl)nc2cc([C@@H]3O[C@H](COP(=O)(O)CP(=O)(O)O)[C@@H](O)[C@@H]3F)ccc12)C1CCCC1` [Compound 15, (((((2R,3R,4S,5S)-5-(2-chloro-4-(cyclopentyl(methyl)amino)quinazolin-7-yl)-4-fluoro-3-hydroxytetrahydrofuran-2-yl)methoxy)(hydroxy)phosphoryl)methyl)phosphonic acid], the IC50 was 100 to 999 nM. `O=P(O)(O)CP(=O)(O)OC[C@H]1O[C@@H](c2ccc3c(N4CCc5ccccc54)nc(Cl)nc3c2)[C@H](O)[C@@H]1O` [Compound 30, (((((2R,3S,4R,5S)-5-(2-chloro-4-(indolin-1-yl)quinazolin-7-yl)-3,4-dihydroxytetrahydrofuran-2-yl)methoxy)(hydroxy)phosphoryl)methyl)phosphonic acid]: the IC50 was in the range of 100 to 999 nM.

Consider `COC1CCC(Nc2nc(Cl)nc3cc([C@@H]4O[C@H](COP(=O)(O)CP(=O)(O)O)[C@@H](O)[C@H]4O)ccc23)CC1` (stereo partly drawn) [Compound 27, [({[(2R,3S,4R,5S)-5-{2-chloro-4-[(4-methoxycyclohexyl)amino]quinazolin-7-yl}-3,4-dihydroxyoxolan-2-yl]methoxy}(hydroxy)phosphoryl)methyl]phosphonic acid], for which the IC50 lay in the range of 100 to 999 nM.

With `O=P(O)(O)CP(=O)(O)OC[C@H]1O[C@@H](c2ccc3c(N4CC5CCCC5C4)nc(Cl)nc3c2)[C@H](O)[C@@H]1O` (stereo partly drawn) [Compound 24, [({[(2R,3S,4R,5S)-5-(2-chloro-4-{hexahydro-1H-cyclopenta[c]pyrrol-2-yl}quinazolin-7-yl)-3,4-dihydroxyoxolan-2-yl]methoxy}(hydroxy)phosphoryl)methyl]phosphonic acid], the IC50 was under 10 nM. As for `O=P(O)(O)CP(=O)(O)OC[C@H]1O[C@@H](c2ccc3c(NC4CCC(O)CC4)nc(Cl)nc3c2)[C@H](O)[C@@H]1O` (stereo partly drawn) [Compound 26, (((((2R,3S,4R,5S)-5-(2-chloro-4-((4-hydroxycyclohexyl)amino)quinazolin-7-yl)-3,4-dihydroxytetrahydrofuran-2-yl)methoxy)(hydroxy)phosphoryl)methyl)phosphonic acid], the IC50 was in the range of 10 to 99 nM.

For `O=P(O)(O)CP(=O)(O)OC[C@H]1O[C@@H](c2ccc3c(NC4CCCC4)nc(C4CC4)nc3c2)[C@H](O)[C@@H]1O` [Compound 39, (((((2R,3S,4R,5S)-5-(4-(cyclopentylamino)-2-cyclopropylquinazolin-7-yl)-3,4-dihydroxytetrahydrofuran-2-yl)methoxy)(hydroxy)phosphoryl)methyl)phosphonic acid], the IC50 fell in the range of 10 to 99 nM. As for `CN(c1nc(Cl)nc2cc([C@@H]3O[C@H](COP(=O)(O)CP(=O)(O)O)[C@@H](O)[C@H]3O)cnc12)C1CCCC1` [Compound 41, (((((2R,3S,4R,5S)-5-(2-chloro-4-(cyclopentyl(methyl)amino)pyrido[3,2-d]pyrimidin-7-yl)-3,4-dihydroxytetrahydrofuran-2-yl)methoxy)(hydroxy)phosphoryl)methyl)phosphonic acid], the IC50 was in the range of 10 to 99 nM. Take `O=P(O)(O)CP(=O)(O)OC[C@H]1O[C@@H](c2ccc3c(NCc4ccccc4)nc(C4CC4)nc3c2)[C@H](O)[C@@H]1O` [Compound 45, (((((2R,3S,4R,5S)-5-(4-(benzylamino)-2-cyclopropylquinazolin-7-yl)-3,4-dihydroxytetrahydrofuran-2-yl)methoxy)(hydroxy)phosphoryl)methyl)phosphonic acid]: the IC50 lay within 10 to 99 nM. The result for `O=P(O)(O)CP(=O)(O)OC[C@H]1O[C@@H](c2cnc3c(NC4CCCC4)nc(Cl)nc3c2)[C@H](O)[C@@H]1O` [Compound 40, (((((2R,3S,4R,5S)-5-(2-chloro-4-(cyclopentylamino)pyrido[3,2-d]pyrimidin-7-yl)-3,4-dihydroxytetrahydrofuran-2-yl)methoxy)(hydroxy)phosphoryl)methyl)phosphonic acid] reads 10 to 99 nM; that for `O=P(O)(O)CP(=O)(O)OC[C@H]1O[C@@H](c2ccc3c(NCc4ccccc4)ncnc3c2)[C@@H](F)[C@@H]1O` [Compound 11, [({[(2R,3R,4S,5S)-5-[4-(benzylamino)quinazolin-7-yl]-4-fluoro-3-hydroxyoxolan-2-yl]methoxy}(hydroxy)phosphoryl)methyl]phosphonic acid], over 1000 nM; that for `O=P(O)(O)CP(=O)(O)OC[C@H]1O[C@@H](c2ccc3c(NCC4CCOC4)nc(Cl)nc3c2)[C@H](O)[C@@H]1O` (stereo partly drawn) [Compound 21, [({[(2R,3S,4R,5S)-5-[2-chloro-4-[(oxolan-3-ylmethyl)amino]quinazolin-7-yl]-3,4-dihydroxyoxolan-2-yl]methoxy}(hydroxy)phosphoryl)methyl]phosphonic acid], 10 to 99 nM.

For `O=P(O)(O)CP(=O)(O)OC[C@H]1O[C@@H](c2ccc3c(N4CCCC4)nc(Cl)nc3c2)[C@H](O)[C@@H]1O` [Compound 29, (((((2R,3S,4R,5S)-5-(2-chloro-4-(pyrrolidin-1-yl)quinazolin-7-yl)-3,4-dihydroxytetrahydrofuran-2-yl)methoxy)(hydroxy)phosphoryl)methyl)phosphonic acid], the IC50 fell in the range of 10 to 99 nM. `O=P(O)(O)CP(=O)(O)OC[C@H]1O[C@@H](c2ccc3c(N[C@@H]4CCOC4)nc(Cl)nc3c2)[C@H](O)[C@@H]1O` [Compound 38, (((((2R,3S,4R,5S)-5-(2-chloro-4-(((R)-tetrahydrofuran-3-yl)amino)quinazolin-7-yl)-3,4-dihydroxytetrahydrofuran-2-yl)methoxy)(hydroxy)phosphoryl)methyl)phosphonic acid]: the IC50 was in the range of 10 to 99 nM. The result for `O=P(O)(O)CP(=O)(O)OC[C@H]1O[C@@H](c2ccc3c(N[C@H]4CCOC4)nc(Cl)nc3c2)[C@H](O)[C@@H]1O` [Compound 37, (((((2R,3S,4R,5S)-5-(2-chloro-4-(((S)-tetrahydrofuran-3-yl)amino)quinazolin-7-yl)-3,4-dihydroxytetrahydrofuran-2-yl)methoxy)(hydroxy)phosphoryl)methyl)phosphonic acid] reads 10 to 99 nM; that for `O=P(O)(O)CP(=O)(O)OC[C@H]1O[C@@H](c2ccc3c(OC4CCCC4)nc(Cl)nc3c2)[C@H](O)[C@@H]1O` [Compound 33, (((((2R,3S,4R,5S)-5-(2-chloro-4-(cyclopentyloxy)quinazolin-7-yl)-3,4-dihydroxytetrahydrofuran-2-yl)methoxy)(hydroxy)phosphoryl)methyl)phosphonic acid], 100 to 999 nM. Take `O=P(O)(O)CP(=O)(O)OC[C@H]1O[C@@H](c2ccc3c(N4CCC(c5ccccc5)C4)nc(Cl)nc3c2)[C@H](O)[C@@H]1O` (stereo partly drawn) [Compound 35, (((((2R,3S,4R,5S)-5-(2-chloro-4-(3-phenylpyrrolidin-1-yl)quinazolin-7-yl)-3,4-dihydroxytetrahydrofuran-2-yl)methoxy)(hydroxy)phosphoryl)methyl)phosphonic acid]: the IC50 fell in the range of 10 to 99 nM.

With `O=P(O)(O)CP(=O)(O)OC[C@H]1O[C@@H](c2ccc3c(N4CCc5ccccc5C4)nc(Cl)nc3c2)[C@H](O)[C@@H]1O` [Compound 36, [({[(2R,3S,4R,5S)-5-[2-chloro-4-(3,4-dihydro-1H-isoquinolin-2-yl)quinazolin-7-yl]-3,4-dihydroxyoxolan-2-yl]methoxy}(hydroxy)phosphoryl)methyl]phosphonic acid], the IC50 lay in the range of 10 to 99 nM.
